In data set [1] the test system is monocotyledonous and dicotyledonous weeds. Nature of the data set: Pre-emergence test experiment (weeds). It counts as in vivo. The arrangement: key: 9: completely dead; 8: growth control rate is greater than or equal to 90% and less than 100%; 7: growth control rate is greater than or equal to 80% and less than 90%; 6: growth control rate is greater than or equal to 70% and less than 80%; growth control rate is greater than or equal to 50% and less than 70%; 4: growth control rate is greater than or equal to 30% and less than 50%; growth control rate is greater than or equal to 20% and less than 30%; growth control rate is greater than or equal to 10% and less than 20%; growth control rate is less than 10%; 0: no effect. Conditions: 30 g a.i./ha.

The test system of a further data set is major crops. Briefly: Pre-emergence test experiment (crops). It counts as in vivo. Details: key: 9: completely dead; 8: growth control rate is greater than or equal to 90% and less than 100%; 7: growth control rate is greater than or equal to 80% and less than 90%; 6: growth control rate is greater than or equal to 70% and less than 80%; growth control rate is greater than or equal to 50% and less than 70%; 4: growth control rate is greater than or equal to 30% and less than 50%; growth control rate is greater than or equal to 20% and less than 30%; growth control rate is greater than or equal to 10% and less than 20%; growth control rate is less than 10%; 0: no effect. To be noted: 30 g a.i./ha.

Consider `CCc1ccc(-n2cnc(C(F)(F)F)n2)nc1Oc1ccc(F)c(OC(F)F)c1` [Compound 132], for which, in data set [1], the “Pre-emergence activity level (growth control rate) on Amaranthus retroflexus” value was determined as 9, the “Pre-emergence activity level (growth control rate) on Descurainia sophia” value came to 9, the “Pre-emergence activity level (growth control rate) on Digitaria sanguinalis” value is listed as 9 and the “Pre-emergence activity level (growth control rate) on Setaria viridis” value was determined as 9. For the same compound, in data set [1], the “Pre-emergence activity level (growth control rate) on Solanum nigrum” value turned out to be 9 and the “Pre-emergence activity level (growth control rate) on Veronica” value (“Pre-emergence activity level … on Veronica” for short) is given as 9. In the data set with major crops, the “Pre-emergence plant damage level (growth control rate) on Corn” value (from here on “Pre-emergence plant damage level … on Corn”) was determined as 0, the “Pre-emergence plant damage level (growth control rate) on Cotton” value (“Pre-emergence plant damage level … on Cotton” for short) was found to be 0 and the “Pre-emergence plant damage level (growth control rate) on Soybean” value (shortened to “Pre-emergence plant damage level … on Soybean”) is given as 0.

In the case of `CCc1ccc(-n2cnc(C(F)(F)F)n2)nc1Oc1cccc(OC(F)F)c1` [Compound 133], in data set [1], the “Pre-emergence activity level (growth control rate) on Amaranthus retroflexus” value came out at 9, the “Pre-emergence activity level (growth control rate) on Descurainia sophia” value is reported as 9, the “Pre-emergence activity level (growth control rate) on Digitaria sanguinalis” value amounted to 9 and the “Pre-emergence activity level (growth control rate) on Setaria viridis” value is listed as 9. In data set [1], the “Pre-emergence activity level (growth control rate) on Solanum nigrum” value turned out to be 9 and the “Pre-emergence activity level … on Veronica” value was 9. Further, in the data set on major crops, the “Pre-emergence plant damage level … on Corn” value was found to be 0, the “Pre-emergence plant damage level … on Cotton” value is reported as 0 and the “Pre-emergence plant damage level … on Soybean” value is given as 0.

Take `CCc1ccc(-n2cnc(C(F)(F)F)n2)nc1Oc1ccc(F)c(C(F)(F)F)c1` [Compound 135]: in data set [1], the “Pre-emergence activity level (growth control rate) on Amaranthus retroflexus” value is reported as 9, the “Pre-emergence activity level (growth control rate) on Descurainia sophia” value amounted to 9, the “Pre-emergence activity level (growth control rate) on Digitaria sanguinalis” value came to 9 and the “Pre-emergence activity level (growth control rate) on Setaria viridis” value is on record as 9. In data set [1], the “Pre-emergence activity level (growth control rate) on Solanum nigrum” value came out at 9 and the “Pre-emergence activity level … on Veronica” value is given as 9. Further, in the data set on major crops, the “Pre-emergence plant damage level … on Corn” value is given as 0, the “Pre-emergence plant damage level … on Cotton” value was 0 and the “Pre-emergence plant damage level … on Soybean” value is 0.

As to `CCc1ccc(-n2cnc(C(F)(F)F)n2)nc1Oc1ccc(F)c(OC(F)(F)F)c1` [Compound 136], in data set [1], the “Pre-emergence activity level (growth control rate) on Amaranthus retroflexus” value is 9, the “Pre-emergence activity level (growth control rate) on Descurainia sophia” value is on record as 9, the “Pre-emergence activity level (growth control rate) on Digitaria sanguinalis” value was 9 and the “Pre-emergence activity level (growth control rate) on Setaria viridis” value is reported as 9. Besides, in data set [1], the “Pre-emergence activity level (growth control rate) on Solanum nigrum” value is 9 and the “Pre-emergence activity level … on Veronica” value was 9. In the data set with major crops, the “Pre-emergence plant damage level … on Corn” value was 0, the “Pre-emergence plant damage level … on Cotton” value amounted to 0 and the “Pre-emergence plant damage level … on Soybean” value turned out to be 0.

Consider `CCc1ccc(-n2cnc(C(F)(F)F)n2)nc1Oc1cccc(C(F)F)c1` [Compound 137], for which, in data set [1], the “Pre-emergence activity level (growth control rate) on Amaranthus retroflexus” value is recorded as 9; the “Pre-emergence activity level (growth control rate) on Descurainia sophia” value is 9; the “Pre-emergence activity level (growth control rate) on Digitaria sanguinalis” value was 8 (growth control rate is greater than or equal to 90% and less than 100%); the “Pre-emergence activity level (growth control rate) on Setaria viridis” value is listed as 9. In addition, in data set [1], the “Pre-emergence activity level (growth control rate) on Solanum nigrum” value is listed as 9 and the “Pre-emergence activity level … on Veronica” value came to 9. For the same compound, in the data set with major crops, the “Pre-emergence plant damage level … on Corn” value came out at 0, the “Pre-emergence plant damage level … on Cotton” value is 0 and the “Pre-emergence plant damage level … on Soybean” value worked out at 0.

Consider `COCc1ccc(-n2cnc(C(F)(F)F)n2)nc1Oc1cccc(Cl)c1` [Compound 139], for which, in data set [1], the “Pre-emergence activity level (growth control rate) on Amaranthus retroflexus” value was found to be 9, the “Pre-emergence activity level (growth control rate) on Descurainia sophia” value is on record as 9, the “Pre-emergence activity level (growth control rate) on Digitaria sanguinalis” value was 9 and the “Pre-emergence activity level (growth control rate) on Setaria viridis” value was 9. Moreover, in data set [1], the “Pre-emergence activity level (growth control rate) on Solanum nigrum” value came to 9 and the “Pre-emergence activity level … on Veronica” value is recorded as 9. In the data set on major crops, the “Pre-emergence plant damage level … on Corn” value came to 0, the “Pre-emergence plant damage level … on Cotton” value is given as 0 and the “Pre-emergence plant damage level … on Soybean” value came to 0.

For `COCc1ccc(-n2cnc(C(F)(F)C(F)(F)F)n2)nc1Oc1cncc(C(F)(F)F)c1` [Compound 140], in data set [1], the “Pre-emergence activity level (growth control rate) on Descurainia sophia” value came to 9; the “Pre-emergence activity level (growth control rate) on Digitaria sanguinalis” value was 8 (growth control rate is greater than or equal to 90% and less than 100%); the “Pre-emergence activity level (growth control rate) on Setaria viridis” value was 9; the “Pre-emergence activity level (growth control rate) on Solanum nigrum” value was found to be 9. The “Pre-emergence activity level … on Veronica” value in data set [1] is given as 9. Also, in the data set with major crops, the “Pre-emergence plant damage level … on Corn” value is 0, the “Pre-emergence plant damage level … on Cotton” value is given as 0 and the “Pre-emergence plant damage level … on Soybean” value is given as 0.

With `COCc1ccc(-n2cnc(C(F)(F)C(F)(F)F)n2)nc1Oc1cccc(C(F)(F)F)c1` [Compound 141], in data set [1], the “Pre-emergence activity level (growth control rate) on Amaranthus retroflexus” value is 8 (growth control rate is greater than or equal to 90% and less than 100%); the “Pre-emergence activity level (growth control rate) on Descurainia sophia” value amounted to 9; the “Pre-emergence activity level (growth control rate) on Digitaria sanguinalis” value was found to be 9; the “Pre-emergence activity level (growth control rate) on Setaria viridis” value is 8 (growth control rate is greater than or equal to 90% and less than 100%). Besides, in data set [1], the “Pre-emergence activity level (growth control rate) on Solanum nigrum” value was determined as 9 and the “Pre-emergence activity level … on Veronica” value was 9. In the data set on major crops, the “Pre-emergence plant damage level … on Corn” value is reported as 0, the “Pre-emergence plant damage level … on Cotton” value is recorded as 0 and the “Pre-emergence plant damage level … on Soybean” value worked out at 0.

On to `COCc1ccc(-n2cnc(C(F)(F)F)n2)nc1Oc1cncc(C(F)(F)F)c1` [Compound 142], for which, in data set [1], the “Pre-emergence activity level (growth control rate) on Amaranthus retroflexus” value stood at 9, the “Pre-emergence activity level (growth control rate) on Descurainia sophia” value worked out at 9, the “Pre-emergence activity level (growth control rate) on Digitaria sanguinalis” value is on record as 9 and the “Pre-emergence activity level (growth control rate) on Setaria viridis” value is on record as 9. In data set [1], the “Pre-emergence activity level (growth control rate) on Solanum nigrum” value is recorded as 9. Moreover, in the data set with major crops, the “Pre-emergence plant damage level … on Corn” value was found to be 0, the “Pre-emergence plant damage level … on Cotton” value turned out to be 0 and the “Pre-emergence plant damage level … on Soybean” value was 0.

In the case of `COCc1ccc(-n2cnc(C(F)(F)F)n2)nc1Oc1ccc(F)c(C(F)(F)F)c1` [Compound 143], in data set [1], the “Pre-emergence activity level (growth control rate) on Amaranthus retroflexus” value is on record as 9; the “Pre-emergence activity level (growth control rate) on Descurainia sophia” value came to 9; the “Pre-emergence activity level (growth control rate) on Digitaria sanguinalis” value was 8 (growth control rate is greater than or equal to 90% and less than 100%); the “Pre-emergence activity level (growth control rate) on Setaria viridis” value amounted to 9. Further, in data set [1], the “Pre-emergence activity level (growth control rate) on Solanum nigrum” value was determined as 9 and the “Pre-emergence activity level … on Veronica” value stood at 9. In addition, in the data set with major crops, the “Pre-emergence plant damage level … on Corn” value worked out at 0, the “Pre-emergence plant damage level … on Cotton” value is 0 and the “Pre-emergence plant damage level … on Soybean” value came to 0.

For `COCc1ccc(-n2cnc(C(F)(F)F)n2)nc1Oc1cccc(C(F)F)c1` [Compound 144], in data set [1], the “Pre-emergence activity level (growth control rate) on Amaranthus retroflexus” value is 9; the “Pre-emergence activity level (growth control rate) on Descurainia sophia” value worked out at 9; the “Pre-emergence activity level (growth control rate) on Digitaria sanguinalis” value is 8 (growth control rate is greater than or equal to 90% and less than 100%); the “Pre-emergence activity level (growth control rate) on Setaria viridis” value came out at 9. For the same compound, in data set [1], the “Pre-emergence activity level (growth control rate) on Solanum nigrum” value was found to be 9 and the “Pre-emergence activity level … on Veronica” value is 9. In the data set with major crops, the “Pre-emergence plant damage level … on Corn” value is given as 0, the “Pre-emergence plant damage level … on Cotton” value turned out to be 0 and the “Pre-emergence plant damage level … on Soybean” value was 0.

With `COCc1ccc(-n2cnc(C(F)(F)F)n2)nc1Oc1cccc(OC(F)(F)F)c1` [Compound 145], in data set [1], the “Pre-emergence activity level (growth control rate) on Amaranthus retroflexus” value is reported as 9, the “Pre-emergence activity level (growth control rate) on Descurainia sophia” value is recorded as 9, the “Pre-emergence activity level (growth control rate) on Digitaria sanguinalis” value was determined as 9 and the “Pre-emergence activity level (growth control rate) on Setaria viridis” value is 9. Further, in data set [1], the “Pre-emergence activity level (growth control rate) on Solanum nigrum” value worked out at 9 and the “Pre-emergence activity level … on Veronica” value was 9. For the same compound, in the data set with major crops, the “Pre-emergence plant damage level … on Corn” value amounted to 0, the “Pre-emergence plant damage level … on Cotton” value was 0 and the “Pre-emergence plant damage level … on Soybean” value is 0.

Consider `COCc1ccc(-n2cnc(C(F)(F)F)n2)nc1Oc1ccc(F)c(OC(F)(F)F)c1` [Compound 146], for which, in data set [1], the “Pre-emergence activity level (growth control rate) on Amaranthus retroflexus” value is given as 9; the “Pre-emergence activity level (growth control rate) on Descurainia sophia” value is 9; the “Pre-emergence activity level (growth control rate) on Digitaria sanguinalis” value is 8 (growth control rate is greater than or equal to 90% and less than 100%); the “Pre-emergence activity level (growth control rate) on Setaria viridis” value is reported as 9. In data set [1], the “Pre-emergence activity level (growth control rate) on Solanum nigrum” value is 9 and the “Pre-emergence activity level … on Veronica” value amounted to 9. In the data set with major crops, the “Pre-emergence plant damage level … on Corn” value is 0, the “Pre-emergence plant damage level … on Cotton” value worked out at 0 and the “Pre-emergence plant damage level … on Soybean” value is 0.

The values above are taken from US20260305610A1, “TRIAZOLE COMPOUND, AND PREPARATION METHOD THEREFOR, HERBICIDAL COMPOSITION AND USE THEREOF” (QINGDAO KINGAGROOT CHEMICAL COMPOUND CO., LTD., priority 2023, published 2026).
